Our source for the IC50 values is patent US8859535B2, “Hydroxy substituted isoquinolinone derivatives” (Novartis AG, priority 2011, dated 2014).

Holding throughout (format): binding
The target in experiment [1] is T1, human MDM2 protein (amino acids 2-188) (Homo sapiens, UniProt Q00987).
T1 construct: human MDM2 protein (amino acids 2-188); made in house
In words: p53-MDM2 TR-FRET assay (p53-MDM2 Assay 1). As to conditions: 1.25 nM MDM2-biotinylated, 10 nM Cy5-p53 peptide; read-out: IC50 (μM) of p53-Hdm2 inhibition (TR-FRET) Assay 1. In a few lines: (§1)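 Peptide displacement read as 665/620 nm TR-FRET ratio (excitation 340 nm) after 15 min room temperature with 10 nM Cy5-p53 aa18-26, following 15 min preincubation of Eu-streptavidin (0.625 nM) with biotinylated MDM4 aa 2-185 (2.5 nM) or MDM2 aa 2-188 (1.25 nM); IC50 curve-fitted. MDM2 Assay 2: MDM2 and Eu-streptavidin each 0.1 nM.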
(In TR-FRET formats the signal depends on donor and acceptor labels being close together.)

Experiment [2] has as its target T2, human MDM4 protein (amino acids 2-185) (Homo sapiens, UniProt O15151).
T2 construct: human MDM4 protein (amino acids 2-185); made in house
T2 sequence (O15151 2-185): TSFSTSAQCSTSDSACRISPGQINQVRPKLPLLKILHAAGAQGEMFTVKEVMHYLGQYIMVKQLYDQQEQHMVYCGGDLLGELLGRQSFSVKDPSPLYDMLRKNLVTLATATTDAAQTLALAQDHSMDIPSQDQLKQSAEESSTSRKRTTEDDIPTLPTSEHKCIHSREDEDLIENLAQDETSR
Description: p53-MDM4 TR-FRET assay (p53-MDM4 Assay 1). The note with it: 2.5 nM MDM4-biotinylated, 10 nM Cy5-p53 peptide; read-out: IC50 (μM) of p53-Hdm4 inhibition (TR-FRET) Assay 1. In a few lines: as §1

In experiment [3] the target is T1, human MDM2 protein (amino acids 2-188). Description: p53-MDM2 TR-FRET assay, modified (p53-MDM2 Assay 2). As to conditions: 0.1 nM MDM2, 0.1 nM Europium labeled streptavidin; read-out: IC50 (nM) of p53-Hdm2 inhibition (TR-FRET) Assay 2. The protocol:
Time Resolved Fluorescence Energy Transfer (TR-FRET) Assay
The inhibition of p53-MDM2 and p53-MDM4 interactions is measured by time resolved fluorescence energy transfer (TR-FRET). Fluorescence energy transfer (or Foerster resonance energy transfer) describes an energy transfer between donor and acceptor fluorescent molecules. For this assay, human MDM2 protein (amino acids 2-188) and human MDM4 protein (amino acids 2-185), tagged with a C-terminal biotin moiety, are used in combination with a Europium labeled streptavidin (Perkin Elmer, Inc., Waltham, Mass., USA) serving as the donor fluorophore. The p53 derived, Cy5 labeled peptide Cy5-TFSDLWKLL (p53 aa18-26) is the energy acceptor. Upon excitation of the donor molecule at 340 nm, binding interaction between MDM2 or MDM4 and the p53 peptide induces energy transfer and enhanced response at the acceptor emission wavelength at 665 nm. Disruption of the formation of the p53-MDM2 or p53-MDM4 complex due to an inhibitor molecule binding to the p53 binding site of MDM2 or MDM4 results in increased donor emission at 620 nm. The ratiometric FRET assay readout is calculated from the raw data of the two distinct fluorescence signals measured in time resolved mode (fluorescence 665 nm/fluorescence 620 nm×1000).
After addition of 1.25 nM MDM2-biotinylated or 2.5 nM MDM4-biotinylated (internal preparations), and 0.625 nM Europium labeled streptavidin (Perkin Elmer), the solution is pre-incubated for 15 minutes at room temperature, then 10 nM Cy5-p53 peptide (internal preparation) is added before an incubation at room temperature for 15 minutes prior to reading the plate. For measurement of samples, a Victor II microplate reader (Perkin Elmer) is used with the following settings: Excitation 340 nm, Emission Donor 620 nm and Emission Acceptor 665 nm. IC50 values are calculated by curve fitting using XLfit. If not specified, reagents are purchased from Sigma-Aldrich Chemie GmBH, Buchs, Switzerland.
This assay was used to evaluate compounds displaying inhibition of p53-MDM2 interaction and p53-MDM4 interaction at IC50s of 0.005 to 50 μM (p53-MDM2 Assay 1 and p53-MDM4 Assay 1, respectively). For selected compounds displaying IC50s between […] on MDM2, a slightly modified assay is used with the following adaptations: 0.1 nM MDM2, 0.1 nM Europium labeled streptavidin and Tecan genios Pro is used as a microplate reader for the fluorescence measurements (p53-MDM2 Assay 2).

T1 sequence (Q00987 2-188): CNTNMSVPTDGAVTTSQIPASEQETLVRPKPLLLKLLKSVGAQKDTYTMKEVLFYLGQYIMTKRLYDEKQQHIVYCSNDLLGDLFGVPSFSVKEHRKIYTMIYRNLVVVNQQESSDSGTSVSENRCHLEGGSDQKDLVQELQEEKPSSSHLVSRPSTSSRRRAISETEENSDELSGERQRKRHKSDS

In general, IC50 refers to the concentration that gives 50% inhibition. As to `COc1cc2c(cc1OC(C)C)[C@H](c1ccc(Cl)cc1)N(c1ccc(C(C)(O)C3CCN(C(=O)CO)CC3)cc1)C(=O)C2` (mixture of isomers) [Example 92, (S)-1-(4-Chloro-phenyl)-2-(4-{1-hydroxy-1-[1-(2-hydroxy-acetyl)-piperidin-4-yl]-ethyl}-phenyl)-7-isopropoxy-6-methoxy-1,4-dihydro-2H-isoquinolin-3-one], the values for the IC50 in experiment [1], in experiment [2] and in experiment [3] were 0.0036 µM, 2.71 µM and 1.84 nM, respectively.
For `COc1cc2c(cc1OC(C)C)[C@H](c1ccc(Cl)cc1)N(c1ccc(C(C)(O)C3CCN(C4CCC4)CC3)cc1)C(=O)C2` (stereo partly drawn) [Example 97, (S)-1-(4-Chloro-phenyl)-2-{4-[1-(1-cyclobutyl-piperidin-4-yl)-1-hydroxy-ethyl]-phenyl}-7-isopropoxy-6-methoxy-1,4-dihydro-2H-isoquinolin-3-one], in that order: 0.0025 µM, 2.43 µM and 2.4 nM.
The like results for `COc1cc2c(cc1OC(C)C)[C@H](c1ccc(Cl)cc1)N(c1ccc(C(C)(O)C3CC4CCC(C3)N4C=O)cc1)C(=O)C2` (stereo partly drawn) [Example 111, 3-(1-{4-[(S)-1-(4-Chloro-phenyl)-7-isopropoxy-6-methoxy-3-oxo-3,4-dihydro-1H-isoquinolin-2-yl]-phenyl}-1-hydroxy-ethyl)-8-aza-bicyclo[3.2.1]octane-8-carbaldehyde] were, in that order, 0.0021 µM, 2.55 µM and 1.5 nM.
The like results for `CC[C@@H](C)Oc1cc2c(cc1OC)CC(=O)N(c1ccc(C(C)(O)C3CCN(C(C)=O)CC3)cc1)[C@H]2c1ccc(Cl)cc1` (stereo partly drawn) [Example 52, (S)-2-{4-[1-(1-Acetyl-piperidin-4-yl)-1-hydroxy-ethyl]-phenyl}-7-((R)-sec-butoxy)-1-(4-chloro-phenyl)-6-methoxy-1,4-dihydro-2H-isoquinolin-3-one] were, in that order, 0.0018 µM, 2.32 µM and 1.98 nM.
Take `COc1cc2c(cc1OC(C)C)[C@H](c1ccc(Cl)cc1)N(c1ccc(C(C)(O)C3CCN(CCO)CC3)cc1)C(=O)C2` (stereo partly drawn) [Example 93, (S)-1-(4-Chloro-phenyl)-2-(4-{1-hydroxy-1-[1-(2-hydroxy-ethyl)-piperidin-4-yl]-ethyl}-phenyl)-7-isopropoxy-6-methoxy-1,4-dihydro-2H-isoquinolin-3-one]: the figures for the IC50 in experiment [1], in experiment [2] and in experiment [3] were 0.0027 µM, 3.35 µM and 2.3 nM, respectively.
In the case of `COc1cc2c(cc1OC(C)C)[C@H](c1ccc(Cl)cc1)N(c1ccc([C@@](C)(O)C3CCN(C)CC3)cc1)C(=O)C2` (single isomer, unassigned) [Example 94], the IC50 in experiment [1] came out at 0.0016 µM; in experiment [2] it was 1.75 µM; in experiment [3] it was 1.06 nM.
The like results for `COc1cc2c(cc1OC(C)C)[C@H](c1ccc(Cl)cc1)N(c1ccc(C(C)(O)C3CC4CCC(C3)N4C)cc1)C(=O)C2` (stereo partly drawn) [Example 105, (S)-1-(4-Chloro-phenyl)-2-{4-[1-hydroxy-1-(8-methyl-8-aza-bicyclo[3.2.1]oct-3-yl)-ethyl]-phenyl}-7-isopropoxy-6-methoxy-1,4-dihydro-2H-isoquinolin-3-one] were, in that order, 0.0043 µM, 4.12 µM and 2.25 nM.
For `COc1cc2c(cc1OC(C)C)[C@H](c1ccc(Cl)cc1)N(c1ccc(C(C)(O)C3CC4CCC(C3)N4C(=O)CO)cc1)C(=O)C2` (stereo partly drawn) [Example 114, (S)-1-(4-Chloro-phenyl)-2-(4-{1-hydroxy-1-[8-(2-hydroxy-acetyl)-8-aza-bicyclo[3.2.1]oct-3-yl]-ethyl}-phenyl)-7-isopropoxy-6-methoxy-1,4-dihydro-2H-isoquinolin-3-one], in that order: 0.0045 µM, 4.92 µM and 4.76 nM.
The like results for `COc1cc2c(cc1OC(C)C)[C@H](c1ccc(Cl)cc1)N(c1ccc(C(C)(O)C3CC4CCCC(C3)O4)cc1)C(=O)C2` (stereo partly drawn) [Example 161, (S)-1-(4-Chloro-phenyl)-2-{4-[1-hydroxy-1-(9-oxa-bicyclo[3.3.1]non-3-yl)-ethyl]-phenyl}-7-isopropoxy-6-methoxy-1,4-dihydro-2H-isoquinolin-3-one] were, in that order, 0.0041 µM, 4.52 µM and 3.72 nM.
With `COc1cc2c(cc1OC(C)C)[C@H](c1ccc(Cl)cc1)N(c1ccc(C(C)(O)C3CC4CCCC(C3)N4C=O)cc1)C(=O)C2` (stereo partly drawn) [Example 117, 3-(1-{4-[(S)-1-(4-Chloro-phenyl)-7-isopropoxy-6-methoxy-3-oxo-3,4-dihydro-1H-isoquinolin-2-yl]-phenyl}-1-hydroxy-ethyl)-9-aza-bicyclo[3.3.1]nonane-9-carbaldehyde], the IC50 is 0.0028 µM in experiment [1], 2.88 µM in experiment [2] and 1.6 nM in experiment [3].
The like results for `COc1cc2c(cc1OC(C)C)[C@H](c1ccc(Cl)cc1)N(c1ccc(C(C)(O)C3CC4CCC(C3)N4CC(F)(F)F)cc1)C(=O)C2` (stereo partly drawn) [Example 106, (S)-1-(4-Chloro-phenyl)-2-(4-{1-hydroxy-1-[8-(2,2,2-trifluoro-ethyl)-8-aza-bicyclo[3.2.1]oct-3-yl]-ethyl}-phenyl)-7-isopropoxy-6-methoxy-1,4-dihydro-2H-isoquinolin-3-one] were, in that order, 0.0049 µM, 8.84 µM and 1.97 nM.
The like results for `COc1cc2c(cc1OC(C)C)[C@H](c1ccc(Cl)cc1)N(c1ccc(C(C)(O)C3CC4CCCC(C3)S4(=O)=O)cc1)C(=O)C2` (mixture of isomers) [Example 175, (S)-1-(4-Chloro-phenyl)-2-{4-[1-(9,9-dioxo-9-thia-bicyclo[3.3.1]non-3-yl)-1-hydroxy-ethyl]-phenyl}-7-isopropoxy-6-methoxy-1,4-dihydro-2H-isoquinolin-3-one] were, in that order, 0.0028 µM, 3.58 µM and 1.92 nM.
In the case of `COc1cc2c(cc1OC(C)C)[C@H](c1ccc(Cl)cc1)N(c1ccc(C(C)(O)C3CC4CCC(C3)N4CCO)cc1)C(=O)C2` (stereo partly drawn) [Example 113, (S)-1-(4-Chloro-phenyl)-2-(4-{1-hydroxy-1-[8-(2-hydroxy-ethyl)-8-aza-bicyclo[3.2.1]oct-3-yl]-ethyl}-phenyl)-7-isopropoxy-6-methoxy-1,4-dihydro-2H-isoquinolin-3-one], the IC50 in experiment [1] came to 0.0048 µM; in experiment [2] it was 4.45 µM; in experiment [3], 2.52 nM.
The like results for `COc1cc2c(cc1OC(C)C)[C@H](c1ccc(Cl)cc1)N(c1ccc(C(C)(O)C3CCN(C4COC4)CC3)cc1)C(=O)C2` (stereo partly drawn) [Example 96, (S)-1-(4-Chloro-phenyl)-2-{4-[1-hydroxy-1-(1-oxetan-3-yl-piperidin-4-yl)-ethyl]-phenyl}-7-isopropoxy-6-methoxy-1,4-dihydro-2H-isoquinolin-3-one] were, in that order, 0.0021 µM, 2.18 µM and 1.35 nM.
For `COc1cc2c(cc1OC(C)C)[C@H](c1ccc(Cl)cc1)N(c1ccc([C@@](C)(O)C3CCS(=O)(=O)CC3)cc1)C(=O)C2` [Example 168, (S)-1-(4-Chloro-phenyl)-2-{4-[(S)-1-(1,1-dioxo-hexahydro-1-thiopyran-4-yl)-1-hydroxy-ethyl]-phenyl}-7-isopropoxy-6-methoxy-1,4-dihydro-2H-isoquinolin-3-one], in that order: 0.0015 µM, 1.96 µM and 1.25 nM.
